We go through 16 compounds from patent US8415356B2, “Isoquinolinone derivatives as NK3 antagonists” (H. Lundbeck A/S, priority 2008, dated 2013).

Tested on in the first test: not given
Assay: not given
The settings on record: schizophrenics; cited from earlier work.
Consider `CC[C@H](NC(=O)c1c(O)c(-c2ccccc2)nc2ccccc12)c1ccccc1` [talnetant], for which the “effect in clinical trials on cognitive behaviour” value is reported as “ameliorate the cognitive behaviour”.

Tested on in the next test: not given
Assay: not given
The settings on record: versus placebo; delusions, hallucinations and paranoia; cited from earlier work.
In the case of `CC(=O)N(C)C1(c2ccccc2)CCN(CCC[C@]2(c3ccc(Cl)c(Cl)c3)CCCN(C(=O)c3ccccc3)C2)CC1` [Osanetant, osanetant], the “effect in clinical trials, in particular on positive symptoms of psychosis” value is “superior to placebo”.

Another test deals with T1, human NK3 receptor (Homo sapiens, UniProt P29371).
T1 construct: expressed in transfected cells; membranes prepared from them
T1 sequence (P29371 1-465): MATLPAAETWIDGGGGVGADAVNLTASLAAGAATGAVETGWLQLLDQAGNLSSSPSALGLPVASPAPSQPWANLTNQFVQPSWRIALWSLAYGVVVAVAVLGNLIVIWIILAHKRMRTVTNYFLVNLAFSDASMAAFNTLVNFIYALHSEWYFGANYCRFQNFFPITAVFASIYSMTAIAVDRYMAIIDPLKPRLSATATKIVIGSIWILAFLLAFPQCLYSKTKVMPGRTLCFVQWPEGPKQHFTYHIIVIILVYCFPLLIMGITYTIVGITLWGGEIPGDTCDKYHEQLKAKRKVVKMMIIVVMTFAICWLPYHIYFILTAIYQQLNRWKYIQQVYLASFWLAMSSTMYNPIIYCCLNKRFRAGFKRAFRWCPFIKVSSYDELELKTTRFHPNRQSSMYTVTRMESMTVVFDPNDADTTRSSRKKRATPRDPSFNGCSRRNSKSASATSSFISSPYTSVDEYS
The test is described as follows: NK3 receptor binding assay (SPA-based competition binding with 125I-NKB). The settings on record: read-out: Affinity Ki/nM. The method, then: Membrane preparation: BHK cells stably expressing the human NK3 receptor were seeded in harvesting plates in Dulbeccos MEM containing GlutaMax (862 mg/l), 1 mM sodium pyruvate, 10% fetal calf serum, 1% Pen/Strep, 1 mg/ml G418 and were grown at 34° C. in a humidified atmosphere containing 10% CO2. To increase receptor expression, 10 μM trichotatin A was added to the media 24 hours before harvest of the cells at a confluency of app 90%. Prior to the harvesting, the cells were washed twice with PBS without Mg^2+ og Ca^2+ and subsequently scrapped of in 10 ml PBS pr harvesting plate. The cells suspension were centrifuged at 1500×G in three minutes before resuspension in 15 mM Tris-HCl pH 7.5 buffer containing 2 mM MgCl2; 0.3 mM EDTA and 1 mM EGTA (buffer A). The cell suspention was homogenised and subsequently centrifuged at 40000×G in 30 minutes. The membrane-pellet was resuspended in buffer A containing 250 mM sucrose, aliquoted and stored at −80° C.
Affinity assay description: The assay was performed as a SPA-based competition-binding assay in a 50 mM Tris pH 7.4 assay buffer containing 120 mM NaCl, 3 mM MnCl2, 40 μg/ml bacitracin, 2 μg/ml Chymostatin, 1 μg/ml Phosphoramidon and 4 μg/ml Leupeptin. […] The assay plate was subsequently under agitation incubated for 90 min at RT. The plate was centrifugated 10 minutes at 500×G and counted in a topcounter 5 minutes pr well.
On to `Cc1c(C(=O)N[C@H](c2cccc(F)c2)C2CC2)c2cccc(F)c2c(=O)n1-n1cccc1` [2ac, 8-Fluoro-3-methyl-1-oxo-2-pyrrol-1-yl-1,2-dihydro-isoquinoline-4-carboxylic acid [(S)-cyclopropyl-(3-fluoro-phenyl)-methyl]-amide], for which the Ki came to 96 nM. For the compound `Cc1c(C(=O)N[C@H](c2cccc(F)c2)C2CC2)c2cccc(F)c2c(=O)n1-c1ccccn1` [2b, 8-Fluoro-3-methyl-1-oxo-2-pyridin-2-yl-1,2-dihydro-isoquinoline-4-carboxylic acid [(S)-cyclopropyl-(3-fluoro-phenyl)-methyl]-amide], the Ki was 150 nM.

As for `Cc1c(C(=O)N[C@H](c2cccc(F)c2)C2CC2)c2cccc(F)c2c(=O)n1-c1ccc(Cl)nc1` [2d, 2-(6-Chloro-pyridin-3-yl)-8-fluoro-3-methyl-1-oxo-1,2-dihydro-isoquinoline-4-carboxylic acid [(S)-cyclopropyl-(3-fluoro-phenyl)-methyl]-amide], the Ki was 120 nM. The same measure, in the same setting: with `Cc1c(C(=O)N[C@H](c2cccc(F)c2)C2CC2)c2cccc(F)c2c(=O)n1-c1cncnc1` [2k, 8-Fluoro-3-methyl-1-oxo-2-pyrimidin-5-yl-1,2-dihydro-isoquinoline-4-carboxylic acid [(S)-cyclopropyl-(3-fluoro-phenyl)-methyl]-amide] the figure was 110 nM; with `Cc1ccc(-n2c(C)c(C(=O)N[C@H](c3cccc(F)c3)C3CC3)c3cccc(F)c3c2=O)cn1` [2l, 8-Fluoro-3-methyl-2-(6-methyl-pyridin-3-yl)-1-oxo-1,2-dihydro-isoquinoline-4-carboxylic acid [(S)-cyclopropyl-(3-fluoro-phenyl)-methyl]-amide], 220 nM; with `Cc1csc(-n2c(C)c(C(=O)N[C@H](c3cccc(F)c3)C3CC3)c3cccc(F)c3c2=O)n1` [2r, 8-Fluoro-3-methyl-2-(4-methyl-thiazol-2-yl)-1-oxo-1,2-dihydro-isoquinoline-4-carboxylic acid [(S)-cyclopropyl-(3-fluoro-phenyl)-methyl]-amide], 150 nM. Still for that read-out and setting: to `Cc1c(C(=O)N[C@H](c2cccc(F)c2)C2CC2)c2cccc(F)c2c(=O)n1-n1cnnc1` [2u, 8-Fluoro-3-methyl-1-oxo-2-[1,2,4]triazol-4-yl-1,2-dihydro-isoquinoline-4-carboxylic acid [(S)-cyclopropyl-(3-fluoro-phenyl)-methyl]-amide] belongs 200 nM. Same read-out and setting: to `CCc1nnc(-n2c(C)c(C(=O)N[C@H](c3cccc(F)c3)C3CC3)c3cccc(F)c3c2=O)s1` [2v, 2-(5-Ethyl-[1,3,4]thiadiazol-2-yl)-8-fluoro-3-methyl-1-oxo-1,2-dihydro-isoquinoline-4-carboxylic acid [(S)-cyclopropyl-(3-fluoro-phenyl)-methyl]-amide] belongs 210 nM; to `Cc1c(C(=O)N[C@H](c2cccc(F)c2)C2CCC2)c2cccc(F)c2c(=O)n1-c1ccn(C)n1` [3f, 8-Fluoro-3-methyl-2-(1-methyl-1H-pyrazol-3-yl)-1-oxo-1,2-dihydro-isoquinoline-4-carboxylic acid [(S)-cyclobutyl-(3-fluoro-phenyl)-methyl]-amide], 71 nM; to `Cc1c(C(=O)N[C@H](c2ccccc2)C2CCC2)c2cccc(F)c2c(=O)n1-c1cccnc1` [4a, 8-Fluoro-3-methyl-1-oxo-2-pyridin-3-yl-1,2-dihydro-isoquinoline-4-carboxylic acid ((S)-cyclobutyl-phenyl-methyl)-amide], 18 nM. Take `CC(C)(C)N1CCN(Cc2c(C(=O)N[C@H](c3cccc(F)c3)C3CC3)c3cccc(F)c3c(=O)n2-c2cccnc2)CC1` [6a, 3-(4-tert-Butyl-piperazin-1-ylmethyl)-8-fluoro-1-oxo-2-pyridin-3-yl-1,2-dihydro-isoquinoline-4-carboxylic acid [(S)-cyclopropyl-(3-fluoro-phenyl)-methyl]-amide]: the Ki turned out to be 13 nM. On the same count and under the same terms, with `O=C(N[C@H](c1cccc(F)c1)C1CC1)c1c(CN2CCCC2=O)n(-c2cccnc2)c(=O)c2c(F)cccc12` [6b, 8-Fluoro-1-oxo-3-(2-oxo-pyrrolidin-1-ylmethyl)-2-pyridin-3-yl-1,2-dihydro-isoquinoline-4-carboxylic acid [(S)-cyclopropyl-(3-fluoro-phenyl)-methyl]-amide] the figure was 110 nM. On to `Cc1c(C(=O)N[C@H](c2cccc(F)c2)C2CCC2)c2cc(F)cc(F)c2c(=O)n1-c1cccnc1` [7c, 6,8-Difluoro-3-methyl-1-oxo-2-pyridin-3-yl-1,2-dihydro-isoquinoline-4-carboxylic acid [(S)-cyclobutyl-(3-fluoro-phenyl)-methyl]-amide], for which the Ki worked out at 15 nM. The same measure, in the same setting: with `Cc1c(C(=O)N[C@H](c2cccc(F)c2)C2CC2)c2cccc(O)c2c(=O)n1-c1cccnc1` [8a, 8-Hydroxy-3-methyl-1-oxo-2-pyridin-3-yl-1,2-dihydro-isoquinoline-4-carboxylic acid [(S)-cyclopropyl-(3-fluoro-phenyl)-methyl]-amide] the figure was 33 nM.
